Test results published in the NIST ThermoML archive (doi:10.1016/j.tca.2013.04.011).
± gives the expanded uncertainty stated by the source.

Settings: 101.33 kPa, Liquid; for speed of sound: Single path-length method; for mass density: Vibrating tube method

speed of sound (293.15 K) [m/s] | mass density (293.15 K) [kg/m3] | speed of sound (298.15 K) [m/s] | mass density (298.15 K) [kg/m3] | speed of sound (303.15 K) [m/s] | mass density (303.15 K) [kg/m3] | speed of sound (308.15 K) [m/s] | mass density (308.15 K) [kg/m3] | Structure (SMILES)
1565.5 ± 1.1 | 1033.23 ± 0.33 | 1546 ± 1.1 | 1028.23 ± 0.33 | 1527.2 ± 1.1 | 1023.46 ± 0.32 | 1507.4 ± 1.1 | 1018.66 ± 0.32 | CN1CCCC1=O [N-methylpyrrolidone]
1631 ± 2 | 1283.89 ± 1.9 | 1619.4 ± 2 | 1279.91 ± 1.9 | 1607.6 ± 2 | 1276.26 ± 1.9 | 1596.3 ± 2 | 1272.07 ± 1.9 | CCn1cc[n+](C)c1.F[B-](F)(F)F [1-ethyl-3-methylimidazolium tetrafluoroborate]

Structure (SMILES) | speed of sound (293.15 K) [m/s] | mass density (293.15 K) [kg/m3] | speed of sound (298.15 K) [m/s] | mass density (298.15 K) [kg/m3] | speed of sound (303.15 K) [m/s] | mass density (303.15 K) [kg/m3] | speed of sound (308.15 K) [m/s] | mass density (308.15 K) [kg/m3]
O=C1CCCN1 [2-pyrrolidinone] | 1650.1 ± 1.1 | 1111.28 ± 0.41 | 1633.9 ± 1.1 | 1107.15 ± 0.41 | 1617.1 ± 1.1 | 1103.02 ± 0.41 | 1601.8 ± 1.1 | 1098.9 ± 0.4
